Measured values published in patent publication US12098147B2, “Compound having novel structure, complex comprising same, anti-cancer pharmaceutical composition, and anti-cancer drug” (ETNOVA THERAPEUTICS CORP., priority 2018, dated 2024).

Experiments:
Huh-7 = test: CCK-8 cell viability, Huh-7 liver cancer cell line; type: cell-based, human; conditions: serum-free medium, 24 hours, mean ± SD of 2 to 3 experiments
Method: (§1) To identify the anticancer effect of the compounds L1, L2, and L3 according to Examples 1 to 3 of the present disclosure, and the complexes L1Pt, L2Pt, and L3Pt according to Examples 4 to 6 of the disclosure, the cell viability analysis of cancer cells using CCK-8 was performed on several cancer cell lines (colorectal cancer cell line (HT-29 cell line), breast cancer cell line (MCF-7 and MDA-MB-231), cervical cancer cell line (HeLa cell line), liver cancer cell line (Huh-7 and HepG2), brain glioma cell line (C6), lung cancer (A549), prostate cancer (PC3), kidney cancer (Caki-2), normal liver cell line (AML-12), embryonic kidney cell line (HEK-293), neural stem cell line (NE-4C) and normal breast epithelial cell line (MCF10a)).
(§2) CCK-8 (Cell counting kit-8) is analyzed using a highly water-soluble tetrazolium salt-[…]. [2-(2-methoxy-4-nitrophenyl)-3-(4-nitrophenyl)(2,4-disulfophenyl)-2H-tetrazolium, monosodium salt] is reduced under the presence of an electron medium to produces a water-soluble formazan orange dye. The amount of the formazan dye produced by dehydrogenase in a cell is directly proportional to the number of living cells.
(§3) In an experimental method for evaluating the properties of the compounds according to the present disclosure, various cancer cell lines derived from humans and normal cell lines of each tissue derived from humans and mice were used in this experiment. A complete growth medium corresponding to each cell line and having 10% of heat-inactivated FBS added thereto was used to maintain corresponding cells. The maintained cells were suspended in a volume of 200 μl at a density of 1 or 1.5×10^4 cells and planted in each well of a 96 well plate. The cells were attached to a 37° C. and 5% CO2 incubator for more than 14 hours, and we waited for a stable state. The next day, we removed the medium from the well. 100 μl of serum-free medium containing drugs of various concentrations (0 (control), 2.5, 5, 10, 20, 30, 40, 50, 100, 200 μM) was added to each well and the cells was cultured therein. On 22 hours after the incubation, 10 μl of CCK-8 solution was added to each well, followed by incubation for 2 hours. A plate on which the culture was completed was measured in terms of absorbance at 450 nm using a microplate reader.
(§4) Cell Viability Calculation:
(§5) • A: Absorbance value measured in a control well • B: Absorbance value measured in a well containing the drug
(§6) In Table 1 below, each compound was applied to the cells at 0, 2.5, 5, 10, 20, 30, 40, 50, 100, and 200 μM, and the cells was cultured in a medium free of serum for 24 hours. The measured absorbance value was converted to a % value based on a value of 0, such that a IC50 value was calculated. Each experiment was performed 2 to 3 times and a standard deviation value was obtained.

PC3 = test: CCK-8 cell viability, PC3 prostate cancer cell line; type: cell-based, human; conditions: serum-free medium, 24 hours, mean ± SD of 2 to 3 experiments
Method: as §1, §2, §3, §4, §5, §6

HEK-293 = test: CCK-8 cell viability, HEK-293 embryonic kidney cell line; type: cell-based; conditions: serum-free medium, 24 hours, mean ± SD of 2 to 3 experiments, read-out: IC50 HEK293 (embryonic kidney)
Method: as §1, §2, §3, §4, §5, §6

A549 = test: CCK-8 cell viability, A549 lung cancer cell line; type: cell-based, human; conditions: serum-free medium, 24 hours, mean ± SD of 2 to 3 experiments
Method: as §1, §2, §3, §4, §5, §6

AML12 = test: CCK-8 cell viability, AML-12 normal liver cell line; type: cell-based; conditions: for toxicity against normal hepatocytes, in words: normal hepatocytes (AML12), FIG. 4; for IC50: serum-free medium, 24 hours, CCK-8, mean ± SD of 2 to 3 experiments
Method: as §2, §3, §4, §5, §6

NE-4C = test: CCK-8 cell viability, NE-4C neural stem cell line; type: cell-based; conditions: for toxicity against brain neurons, in words: brain neurons (NE-4C), FIG. 4; for IC50: serum-free medium, 24 hours, CCK-8, mean ± SD of 2 to 3 experiments, read-out: IC50 NC-4C (Neural stem cell)
Method: as §2, §3, §4, §5, §6

HepG2 = test: CCK-8 cell viability, HepG2 liver cancer cell line; type: cell-based, human; conditions: serum-free medium, 24 hours, mean ± SD of 2 to 3 experiments
Method: as §1, §2, §3, §4, §5, §6

MCF10a = test: CCK-8 cell viability, MCF10a normal breast epithelial cell line; type: cell-based; conditions: for cytotoxicity against breast epithelial cells, in words: breast epithelial cells (MCF10a), FIG. 4; for IC50: serum-free medium, 24 hours, CCK-8, mean ± SD of 2 to 3 experiments
Method: as §1, §2, §3, §4, §5, §6

HT-29 cell line = test: CCK-8 cell viability, HT-29 colorectal cancer cell line; type: cell-based, human; conditions: serum-free medium, 24 hours, mean ± SD of 2 to 3 experiments
Method: as §1, §2, §3, §4, §5, §6

MCF-7 = test: CCK-8 cell viability, MCF-7 breast cancer cell line; type: cell-based, human; conditions: serum-free medium, 24 hours, mean ± SD of 2 to 3 experiments
Method: as §1, §2, §3, §4, §5, §6

Caki-2 = test: CCK-8 cell viability, Caki-2 kidney cancer cell line; type: cell-based, human; conditions: serum-free medium, 24 hours, mean ± SD of 2 to 3 experiments
Method: as §1, §2, §3, §4, §5, §6

C6 = test: CCK-8 cell viability, C6 brain glioma cell line; type: cell-based, human; conditions: serum-free medium, 24 hours, mean ± SD of 2 to 3 experiments
Method: as §1, §2, §3, §4, §5, §6

HeLa cell line = test: CCK-8 cell viability, HeLa cervical cancer cell line; type: cell-based, human; conditions: serum-free medium, 24 hours, mean ± SD of 2 to 3 experiments
Method: as §1, §2, §3, §4, §5, §6

MDA-MB-231 = test: CCK-8 cell viability, MDA-MB-231 breast cancer cell line; type: cell-based, human; conditions: serum-free medium, 24 hours, mean ± SD of 2 to 3 experiments
Method: as §1, §2, §3, §4, §5, §6

[1] = test system: several cancer cell lines; test: CCK-8 cell viability, panel of cancer cell lines compared in words (FIGS. 3a to 3e); type: cell-based, human; conditions: for effect on cancer cell lines, in words: Log IC50, FIGS. 3a to 3e, no comparator
Method: as §1, §2, §3
Further, FIGS. 3a to 3e show a graph in which a IC50 value which is obtained based on 2 to 3 times executions of the cell viability analysis is converted to a Log IC50 value. […] The comparative reliability values for BTA were expressed as […], ##p<0.01, and ## #p<0.001. A red line represents the value of cisplatin. A blue line represents the value of BTA.

| Molecule | IC50 (Huh-7) | IC50 (PC3) | IC50 (HEK-293) | IC50 (A549) | toxicity against normal hepatocytes, in words (AML12) | IC50 (AML12) | toxicity against brain neurons, in words (NE-4C) | IC50 (NE-4C) | IC50 (HepG2) | cytotoxicity against breast epithelial cells, in words (MCF10a) | IC50 (MCF10a) | IC50 (HT-29 cell line) | IC50 (MCF-7) | IC50 (Caki-2) | IC50 (C6) | IC50 (HeLa cell line) | IC50 (MDA-MB-231) | cell toxicity on cancer cell lines compared with BTA, in words ([1]; Log IC50 comparison, FIGS. 3a to 3e, comparator BTA) | effect on cancer cell lines, in words [1] |
| --- | --- | --- | --- | --- | --- | --- | --- | --- | --- | --- | --- | --- | --- | --- | --- | --- | --- | --- | --- |
| O=C(Nc1ccc(-c2nc3ccccc3s2)cc1)C1CN=Cc2ccccc2[O][Pt][O]c2ccccc2C=N1 (stereo not drawn) [Example L2Pt] | 197 ± 3.75 µM | > 500 µM | 212 ± 14.9 µM | > 500 µM | did not exhibit liver cytotoxicity | > 500 µM | greater toxicity than BTA did | 47 ± 4.12 µM | 31.6 ± 3.62 µM | weaker cytotoxicity or no cytotoxicity than cisplatin and BTA did | > 500 µM | 173 ± 3.23 µM | > 500 µM | > 500 µM | > 500 µM | 221 ± 15.8 µM | > 500 µM | greater cell toxicity on colorectal cancer than BTA did | – |
| O=C(Nc1ccc(-c2nc3ccccc3s2)cc1)C1CNC(c2ccccn2)=N1.[Cl][Pt][Cl] (stereo not drawn) [Example L3Pt] | 173 ± 24.3 µM | > 500 µM | 206 ± 7.45 µM | > 500 µM | did not exhibit liver cytotoxicity | > 500 µM | greater toxicity than BTA did | 32.4 ± 6.02 µM | > 500 µM | weaker cytotoxicity or no cytotoxicity than cisplatin and BTA did | > 500 µM | > 500 µM | > 500 µM | > 500 µM | > 500 µM | > 500 µM | > 500 µM | – | only exerts cell toxicity effects on liver cancer |
| benzothiazole aniline [BTA, reference compound] | 406 ± 35.7 µM | 182 ± 7.79 µM | > 500 µM | > 500 µM | – | > 500 µM | – | 60.9 ± 2.93 µM | 52 ± 5.71 µM | – | 401 ± 136 µM | 275 ± 5.03 µM | 104 ± 28.6 µM | 463 ± 44.1 µM | 425 ± 47.8 µM | 76.4 ± 23.4 µM | > 500 µM | – | did not have greater effect on colorectal cancer, brain glioma, and lung cancer |
